From patent EP0328090A2 (priority 1988, dated 1989)
Starred links: 1 amine or outer side, 2 acyl side, 3 side chain; linkers in the order of their positions; H or OH if unused. Non-standard residues stand in square brackets, D forms with d. Residues, ends and D or L forms follow the SMILES beside them. X1 = CCNC[C@@H](C(=O)[*:2])N(C)[*:1]; Sar = CNCC(=O)O

Columns and labels:
LHRH receptors = biological target: T1, LHRH receptors (Rattus norvegicus, UniProt P30969); experiment: Radioligand receptor binding assay; details: rat pituitary membranes; radioiodinated [D-Leu⁶-des Gly¹⁰]-LHRH ethyl amide 50pM; 2 hours at 4°C; read-out: Receptor Binding pkI (converted)
T1 sequence (P30969 1-327): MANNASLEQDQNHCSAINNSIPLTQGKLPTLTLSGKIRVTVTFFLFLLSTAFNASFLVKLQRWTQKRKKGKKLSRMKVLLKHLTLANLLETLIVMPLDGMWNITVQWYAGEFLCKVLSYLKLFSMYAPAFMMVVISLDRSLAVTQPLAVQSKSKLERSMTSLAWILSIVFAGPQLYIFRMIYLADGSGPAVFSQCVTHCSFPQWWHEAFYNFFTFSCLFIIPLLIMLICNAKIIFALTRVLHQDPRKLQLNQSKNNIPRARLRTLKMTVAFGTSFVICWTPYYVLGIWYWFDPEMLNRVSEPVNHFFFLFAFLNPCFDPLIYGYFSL
Procedure: (§1) The biological activities of the compounds of the invention are determined by the following assays: • (a) Receptor Binding. A radioligand receptor binding assay is performed in a similar way to that described in the literature (J. Marion et al., Mol. Pharmacol. 19 399 (1981)). […] The radioligand (50pM), receptors, and compounds to be tested are coincubated for 2 hours at 4°C. Bound ligand is separated from free ligand via centrifugation and aspiration. […] This assay has been adopted from the literature (H.A. Jinnah and P.M. Conn, Endrocrinology 118 2599 (1986)). Rat pituitaries are removed from immature female rats, minced, and dissociated with collagenase/hyaluronidase. They are allowed to attach to 48-well microtiter plates for 48-72 hours, then are exposed to test compounds for 3 hours at 37°C. The medium is assayed for released LH by RIA (radioimmunoassay). […] The compound to be tested is administered to castrated rats intraveneously and the serum LH concentration at various time points is measured by RIA. The time inteorated LH response is calculated and the dose producing half-maximal LH release (ED₅₀) is reported. • (d) Stability against enzymatic degradation. The intestinal stability of the compounds of the invention was determined using in vitro rat jejunum in a reperfusion system. The fractional mucosal loss was an indicator of the relative rate if degradation of the compounds thirty minutes after introduction of the luminal bath.

serum LH concentration = experiment: In vivo LH release in castrated rats (serum LH by RIA); details: i.v., dose producing half-maximal time integrated LH release
Procedure: as §1

Ki (LHRH receptors) [nM] | SMILES | ED₅₀ (serum LH concentration) [µg/kg]
0.0398 | CC(C)C[C@H](NC(=O)[C@@H](Cc1ccc2ccccc2c1)NC(=O)[C@H](Cc1ccc(O)cc1)NC(=O)[C@H](CO)N(C)C(=O)[C@H](Cc1c[nH]c2ccccc12)NC(=O)[C@H](Cc1c[nH]cn1)NC(=O)[C@@H]1CCC(=O)N1)C(=O)N[C@@H](CCCN=C(N)N)C(=O)N1CCC[C@H]1C(=O)NCC(N)=O [Ex. 3, (pyro)Glu-His-Trp-N-Me-Ser-Tyr-D-(2)-Nal-Leu-Arg-Pro-Gly-NH₂] | –
– | CCNC[C@@H](C(=O)N[C@@H](Cc1ccc(O)cc1)C(=O)N[C@H](Cc1c[nH]c2ccccc12)C(=O)N[C@@H](CC(C)C)C(=O)N[C@@H](CCCNC(=N)N)C(=O)N1CCC[C@H]1C(=O)NCC)N(C)C(=O)[C@H](Cc1c[nH]c2ccccc12)NC(=O)[C@H](Cc1c[nH]cn1)NC(=O)CN(C)C(C)=O [Ex. 7, N-Ac-Sar-His-Trp-(3)-N-Et-(2)-N-Me-Dap-Tyr-D-Trp-Leu-Arg-Pro-NHEt] (Ac-[Sar]HW[X1]Y[dW]LRP-NHEt) | 9.64
– | CCNC(=O)CC[C@H](NC(=O)NCC)C(=O)N[C@@H](Cc1c[nH]cn1)C(=O)N[C@@H](Cc1c[nH]c2ccccc12)C(=O)N(C)[C@@H](CO)C(=O)N[C@@H](Cc1ccc(O)cc1)C(=O)N[C@H](Cc1c[nH]c2ccccc12)C(=O)N[C@@H](CC(C)C)C(=O)N[C@@H](CCCNC(=N)N)C(=O)N1CCC[C@H]1C(=O)NCC [Ex. 12, (2)-N-(Ethylaminocarbonyl)-(5)-N-ethylamido-Glu-His-Trp-N-Me-Ser-Tyr-D-Trp-Leu-Arg-Pro-NHEt] | 9.90
0.038 | CCNC(=O)[C@@H]1CCCN1C(=O)[C@H](CCCNC(=N)N)NC(=O)[C@H](CC(C)C)N1CC[C@H](NC(=O)[C@H](Cc2ccc(O)cc2)NC(=O)[C@H](CO)N(C)C(=O)[C@H](Cc2c[nH]c3ccccc23)NC(=O)[C@H](Cc2c[nH]cn2)NC(=O)[C@@H]2CCC(=O)N2)C1=O [Ex. 13, (pyro)-Glu-His-Trp-N-Me-Ser-Tyr-6,7-[2-(S-3-amino-2-oxo-pyrrolidin-1-yl)-S-2-Isopropylmethylacetyl]-Arg-Pro-NHEt] | –
0.0158 | CCNC(=O)[C@@H]1CCCN1C(=O)[C@H](CCCN=C(N)N)NC(=O)[C@H](CC(C)C)NC(=O)[C@@H](Cc1c[nH]c2ccccc12)NC(=O)[C@H](Cc1ccc(O)cc1)N(C)C(=O)[C@H](CO)NC(=O)[C@H](Cc1c[nH]c2ccccc12)NC(=O)[C@H](Cc1c[nH]cn1)NC(=O)[C@@H]1CCC(=O)N1 [Ex. 20, (pyro)Glu-His-Trp-Ser-N-Me-Tyr-D-Trp-Leu-Arg-ProNHEt] | –
0.692 | CCNC(=O)[C@@H]1CCCN1C(=O)[C@H](CCCN=C(N)N)NC(=O)[C@H](CC(C)C)NC(=O)[C@@H](CC(C)C)N(C)C(=O)[C@H](Cc1ccc(O)cc1)NC(=O)[C@H](CO)NC(=O)[C@H](Cc1c[nH]c2ccccc12)NC(=O)[C@H](Cc1cnc[nH]1)NC(=O)[C@@H]1CCC(=O)N1 [Ex. 22, (pyro)Glu-His-Trp-Ser-Tyr-N-Me-D-Leu-Leu-Arg-ProNHEt] | –
– | CC(C)C[C@H](NC(=O)CNC(=O)[C@H](Cc1ccc(O)cc1)NC(=O)[C@H](CO)NC(=O)[C@H](Cc1c[nH]c2ccccc12)NC(=O)[C@H](Cc1c[nH]cn1)NC(=O)[C@@H]1CCC(=O)N1)C(=O)N[C@@H](CCCNC(=N)N)C(=O)N1CCC[C@H]1C(=O)NCC(N)=O [LHRH, reference compound] | 100
